The text below walks through data of US20070010671A1, “Novel quinazoline derivatives and methods of treatment related to the use thereof” (priority 2003, published 2007).

In the assay the target is MCH receptor (Homo sapiens, UniProt Q99705). Description: High throughput functional screening FLIPR/FDSS6000: inhibition of MCH-evoked intracellular Ca2+ changes. Format: cell-based. Conditions: class by percent of control at 10^-7 M or IC50. A digest of the protocol:
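Antagonism was measured as inhibition of calcium responses to 50 nM MCH, monitored 290 s at ex 488/em 530 nm on FLIPR or FDSS6000. Beforehand, cells bearing a constitutively active MCH receptor received Fluo4-AM (4 μM, 1 h, 37 °C) with probenecid, and test compound for 3 min.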

Each structure is given as a SMILES string.

Consider `CN(C)c1nc(N[C@H]2CC[C@@H](NC(=S)NCCc3ccccc3)CC2)nc2ccccc12` [compound 203], for which the class was 3 (Class 3: The value of percent of control at 10^−7 M was more than 60% or the value of IC50 was more than 200 nM.).

For the molecule `COc1ccc(NC(=S)N[C@H]2CC[C@@H](Nc3nc(N(C)C)c4ccccc4n3)CC2)cc1OC` [compound 204], the class is 1 (Class 1: The value of percent of control at 10^−7 M was less than 40% or the value of IC50 was less than 50 nM.).

Turning to `CCc1ccc(NC(=S)N[C@H]2CC[C@@H](Nc3nc(N(C)C)c4ccccc4n3)CC2)cc1` [compound 205], the class was 2 (Class 2: The value of percent of control at 10^−7 M was from 40% to 60% or the value of IC50 was from 50 nM to 200 nM.).

Turning to `CSc1ccccc1NC(=S)N[C@H]1CC[C@@H](Nc2nc(N(C)C)c3ccccc3n2)CC1` [compound 206], the class is given as 2 (Class 2: The value of percent of control at 10^−7 M was from 40% to 60% or the value of IC50 was from 50 nM to 200 nM.).

`CN(C)c1nc(N[C@H]2CC[C@@H](NC(=S)Nc3ccccc3OC(F)(F)F)CC2)nc2ccccc12` [compound 207, N-(cis-4-{[4-(dimethylamino)quinazolin-2-yl]amino}cyclohexyl)-N′-[2-(trifluoromethoxy)phenyl]thiourea]: the class is listed as 2 (Class 2: The value of percent of control at 10^−7 M was from 40% to 60% or the value of IC50 was from 50 nM to 200 nM.).

Consider `CN(C)c1nc(N[C@H]2CC[C@@H](NC(=S)Nc3ccccc3C(F)(F)F)CC2)nc2ccccc12` [compound 208], for which the class was 3 (Class 3: The value of percent of control at 10^−7 M was more than 60% or the value of IC50 was more than 200 nM.).

As for `CN(C)c1nc(N[C@H]2CC[C@@H](NC(=S)Nc3ccc(F)c(F)c3F)CC2)nc2ccccc12` [compound 209, N-(cis-4-{[4-(dimethylamino)quinazolin-2-yl]amino}cyclohexyl)-N′-(2,3,4-trifluorophenyl)thiourea], the class is given as 2 (Class 2: The value of percent of control at 10^−7 M was from 40% to 60% or the value of IC50 was from 50 nM to 200 nM.).

As to `CN(C)c1nc(N[C@H]2CC[C@@H](NC(=S)Nc3cccc(Cl)c3Cl)CC2)nc2ccccc12` [compound 210], the class is 3 (Class 3: The value of percent of control at 10^−7 M was more than 60% or the value of IC50 was more than 200 nM.).

Take `CN(C)c1nc(N[C@H]2CC[C@@H](NC(=S)Nc3ccc(F)cc3F)CC2)nc2ccccc12` [compound 211]: the class is reported as 3 (Class 3: The value of percent of control at 10^−7 M was more than 60% or the value of IC50 was more than 200 nM.).

For the molecule `COc1ccc(OC)c(NC(=S)N[C@H]2CC[C@@H](Nc3nc(N(C)C)c4ccccc4n3)CC2)c1` [compound 212], the class is on record as 2 (Class 2: The value of percent of control at 10^−7 M was from 40% to 60% or the value of IC50 was from 50 nM to 200 nM.).

Consider `CN(C)c1nc(N[C@H]2CC[C@@H](NC(=S)Nc3c(F)cccc3F)CC2)nc2ccccc12` [compound 213], for which the class was 3 (Class 3: The value of percent of control at 10^−7 M was more than 60% or the value of IC50 was more than 200 nM.).

With `CN(C)c1nc(N[C@H]2CC[C@@H](NC(=S)Nc3ccc([N+](=O)[O-])cc3Cl)CC2)nc2ccccc12` [compound 214], the class is 2 (Class 2: The value of percent of control at 10^−7 M was from 40% to 60% or the value of IC50 was from 50 nM to 200 nM.).

With `CN(C)c1nc(N[C@H]2CC[C@@H](NC(=S)Nc3ccccc3OC(F)F)CC2)nc2ccccc12` [compound 215], the class is recorded as 3 (Class 3: The value of percent of control at 10^−7 M was more than 60% or the value of IC50 was more than 200 nM.).

`CCc1ccccc1NC(=S)N[C@H]1CC[C@@H](Nc2nc(N(C)C)c3ccccc3n2)CC1` [compound 216]: the class is recorded as 1 (Class 1: The value of percent of control at 10^−7 M was less than 40% or the value of IC50 was less than 50 nM.).

Consider `CN(C)c1nc(N[C@H]2CC[C@@H](NC(=S)Nc3cc(C(F)(F)F)ccc3F)CC2)nc2ccccc12` [compound 217], for which the class is recorded as 3 (Class 3: The value of percent of control at 10^−7 M was more than 60% or the value of IC50 was more than 200 nM.).

For the molecule `CN(C)c1nc(N[C@H]2CC[C@@H](NC(=S)Nc3ccccc3F)CC2)nc2ccccc12` [compound 218], the class is 3 (Class 3: The value of percent of control at 10^−7 M was more than 60% or the value of IC50 was more than 200 nM.).

For the molecule `CN(C)c1nc(N[C@H]2CC[C@@H](NC(=S)Nc3ccccc3I)CC2)nc2ccccc12` [compound 219], the class is 2 (Class 2: The value of percent of control at 10^−7 M was from 40% to 60% or the value of IC50 was from 50 nM to 200 nM.).

With `COc1cc([N+](=O)[O-])ccc1NC(=S)N[C@H]1CC[C@@H](Nc2nc(N(C)C)c3ccccc3n2)CC1` [compound 220, N-(cis-4-{[4-(dimethylamino)quinazolin-2-yl]amino}cyclohexyl)-N′-(2-methoxy-4-nitrophenyl)thiourea], the class is listed as 1 (Class 1: The value of percent of control at 10^−7 M was less than 40% or the value of IC50 was less than 50 nM.).

Consider `COc1ccc(C)cc1NC(=S)N[C@H]1CC[C@@H](Nc2nc(N(C)C)c3ccccc3n2)CC1` [compound 221, N-(cis-4-{[4-(dimethylamino)quinazolin-2-yl]amino}cyclohexyl)-N′-(2-methoxy-5-methylphenyl)thiourea], for which the class is 1 (Class 1: The value of percent of control at 10^−7 M was less than 40% or the value of IC50 was less than 50 nM.).

Regarding `CN(C)c1nc(N[C@H]2CC[C@@H](NC(=S)Nc3cccc(SC(F)(F)F)c3)CC2)nc2ccccc12` [compound 222], the class is 3 (Class 3: The value of percent of control at 10^−7 M was more than 60% or the value of IC50 was more than 200 nM.).

For the molecule `CN(C)c1nc(N[C@H]2CC[C@@H](NC(=S)Nc3cc(Cl)cc(Cl)c3)CC2)nc2ccccc12` [compound 223], the class is on record as 3 (Class 3: The value of percent of control at 10^−7 M was more than 60% or the value of IC50 was more than 200 nM.).

Consider `CN(C)c1nc(N[C@H]2CC[C@@H](NC(=S)Nc3cc(F)cc(F)c3)CC2)nc2ccccc12` [compound 224], for which the class is reported as 3 (Class 3: The value of percent of control at 10^−7 M was more than 60% or the value of IC50 was more than 200 nM.).

Regarding `CN(C)c1nc(N[C@H]2CC[C@@H](NC(=S)Nc3cccc(C#N)c3)CC2)nc2ccccc12` [compound 225], the class is 3 (Class 3: The value of percent of control at 10^−7 M was more than 60% or the value of IC50 was more than 200 nM.).

As to `CN(C)c1nc(N[C@H]2CC[C@@H](NC(=S)Nc3cccc(F)c3)CC2)nc2ccccc12` [compound 226], the class was 3 (Class 3: The value of percent of control at 10^−7 M was more than 60% or the value of IC50 was more than 200 nM.).

For the molecule `CN(C)c1nc(N[C@H]2CC[C@@H](NC(=S)Nc3cccc(I)c3)CC2)nc2ccccc12` [compound 227], the class is recorded as 2 (Class 2: The value of percent of control at 10^−7 M was from 40% to 60% or the value of IC50 was from 50 nM to 200 nM.).

In the case of `COc1cccc(NC(=S)N[C@H]2CC[C@@H](Nc3nc(N(C)C)c4ccccc4n3)CC2)c1` [compound 228, N-(cis-4-{[4-(dimethylamino)quinazolin-2-yl]amino}cyclohexyl)-N′-(3-methoxyphenyl)thiourea], the class was 2 (Class 2: The value of percent of control at 10^−7 M was from 40% to 60% or the value of IC50 was from 50 nM to 200 nM.).

Take `CN(C)c1nc(N[C@H]2CC[C@@H](NC(=S)Nc3ccc(OC(F)F)cc3)CC2)nc2ccccc12` [compound 229, N-[4-(difluoromethoxy)phenyl]-N′-(cis-4-{[4-(dimethylamino)quinazolin-2-yl]amino}cyclohexyl)thiourea]: the class is given as 2 (Class 2: The value of percent of control at 10^−7 M was from 40% to 60% or the value of IC50 was from 50 nM to 200 nM.).

`CN(C)c1nc(N[C@H]2CC[C@@H](NC(=S)Nc3ccc(OC(F)(F)F)cc3)CC2)nc2ccccc12` [compound 230]: the class is reported as 3 (Class 3: The value of percent of control at 10^−7 M was more than 60% or the value of IC50 was more than 200 nM.).

`CN(C)c1nc(N[C@H]2CC[C@@H](NC(=S)Nc3ccc(C(F)(F)F)cc3)CC2)nc2ccccc12` [compound 231, N-(cis-4-{[4-(dimethylamino)quinazolin-2-yl]amino}cyclohexyl)-N′-[4-(trifluoromethyl)phenyl]thiourea]: the class is 2 (Class 2: The value of percent of control at 10^−7 M was from 40% to 60% or the value of IC50 was from 50 nM to 200 nM.).

For `CN(C)c1nc(N[C@H]2CC[C@@H](NC(=S)Nc3ccc(SC(F)(F)F)cc3)CC2)nc2ccccc12` [compound 232], the class is reported as 3 (Class 3: The value of percent of control at 10^−7 M was more than 60% or the value of IC50 was more than 200 nM.).

Turning to `CN(C)c1nc(N[C@H]2CC[C@@H](NC(=S)Nc3ccc(Br)cc3Cl)CC2)nc2ccccc12` [compound 233], the class is 1 (Class 1: The value of percent of control at 10^−7 M was less than 40% or the value of IC50 was less than 50 nM.).

As to `CN(C)c1nc(N[C@H]2CC[C@@H](NC(=S)Nc3ccc(Br)cc3F)CC2)nc2ccccc12` [compound 234], the class is given as 3 (Class 3: The value of percent of control at 10^−7 M was more than 60% or the value of IC50 was more than 200 nM.).

On to `CN(C)c1nc(N[C@H]2CC[C@@H](NC(=S)Nc3ccc(Cl)c(C(F)(F)F)c3)CC2)nc2ccccc12` [compound 235], for which the class is listed as 3 (Class 3: The value of percent of control at 10^−7 M was more than 60% or the value of IC50 was more than 200 nM.).

Consider `CN(C)c1nc(N[C@H]2CC[C@@H](NC(=S)Nc3ccc(F)c(C(F)(F)F)c3)CC2)nc2ccccc12` [compound 236], for which the class was 3 (Class 3: The value of percent of control at 10^−7 M was more than 60% or the value of IC50 was more than 200 nM.).

Consider `CN(C)c1nc(N[C@H]2CC[C@@H](NC(=S)Nc3ccc(I)cc3)CC2)nc2ccccc12` [compound 237], for which the class is on record as 1 (Class 1: The value of percent of control at 10^−7 M was less than 40% or the value of IC50 was less than 50 nM.).
